Reference: PubChem BioAssay (NCI)
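GI50 = concentration required for 50% inhibition of growth. TGI: total growth inhibition.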

Legend:
Assay in all cases: NCI tumour cell line growth inhibition, 384-well format
[1] = tested on: TK-10 renal
[2] = tested on: CAKI-1 renal
[3] = tested on: SN12C renal
[4] = tested on: HS 578T breast
[5] = tested on: SF-268 CNS
[6] = tested on: SNB-19 CNS
[7] = tested on: UACC-62 melanoma
[8] = tested on: UACC-257 melanoma
[9] = tested on: HCT-15 colon
[10] = tested on: NCI-H460 NSCLC
[11] = tested on: A549 NSCLC
[12] = tested on: SF-539 CNS
[13] = tested on: LOX IMVI melanoma

Which results are given for `c1cn2cc(-c3ccc4cn[nH]c4c3)nc(Nc3ccc(N4CCOCC4)cc3)c2n1`?
GI50 [1]: 5.67 µM; TGI [1]: 22 µM; GI50 [2]: 11.9 µM; TGI [2]: 25.3 µM; GI50 [3]: 10 µM; TGI [3]: 22.6 µM; GI50 [4]: 1.87 µM; TGI [4]: 8.11 µM; GI50 [5]: 4.45 µM; TGI [5]: 16.9 µM; GI50 [6]: 8.81 µM; TGI [6]: 21.4 µM; GI50 [7]: 7.97 µM; TGI [7]: 20.9 µM; GI50 [8]: 11.5 µM; TGI [8]: 27.6 µM; GI50 [9]: 19.4 µM; TGI [9]: > 100 µM; GI50 [10]: 11.1 µM; TGI [10]: 24.6 µM; GI50 [11]: 17.1 µM; TGI [11]: > 53.8 µM; GI50 [12]: 4.6 µM; TGI [12]: 16.5 µM; GI50 [13]: 15.4 µM; TGI [13]: 36.6 µM

How did the GI50 [1] turn out when `C=CC(=O)N[C@H]1CCOC[C@H]1Nc1ncc2cc(-c3c(Cl)c(OC)cc(OC)c3Cl)ccc2n1` was run?
The GI50 was 20.9 µM.

And the TGI [1]?
The TGI was greater than 95.6 µM.

And the GI50 [2]?
Its GI50 is 12 µM.

What about the TGI [2] of the same molecule?
Its TGI is 82.4 µM.

What about the GI50 [3] of the same molecule?
The GI50 was 15.4 µM.

What about the TGI [3] of the same molecule?
The TGI was 75 µM.

What about the GI50 [4] of the same molecule?
Its GI50 is 12 µM.

And the TGI [4]?
Its TGI is 27.9 µM.

What about the GI50 [5] of the same molecule?
The GI50 was 4.16 µM.

What about the TGI [5] of the same molecule?
The TGI was 23.9 µM.

And the GI50 [6]?
The GI50 was 19.2 µM.

What about the TGI [6] of the same molecule?
The TGI was 55.7 µM.

What about the GI50 [7] of the same molecule?
Its GI50 is 10.7 µM.

What about the TGI [7] of the same molecule?
Its TGI is 25.1 µM.

What about the GI50 [8] of the same molecule?
The GI50 was 13.9 µM.

What about the TGI [8] of the same molecule?
The TGI was 38.8 µM.

What about the GI50 [9] of the same molecule?
Its GI50 is 11.4 µM.

What about the TGI [9] of the same molecule?
The TGI was 35.5 µM.

What about the GI50 [10] of the same molecule?
Its GI50 is 11.8 µM.

What about the TGI [10] of the same molecule?
Its TGI is 25.7 µM.

And the GI50 [11]?
The GI50 was 17.3 µM.

And the TGI [11]?
Its TGI is 74.2 µM.

What about the GI50 [12] of the same molecule?
Its GI50 is 13.5 µM.

And the TGI [12]?
Its TGI is 28.2 µM.

What about the GI50 [13] of the same molecule?
Its GI50 is 13 µM.

And the TGI [13]?
The TGI was 27.3 µM.
